# Experimental data: patent EP1149092B1, “4- AND 5-ALKYNYLOXINDOLES AND 4- AND 5-ALKENYLOXINDOLES” (F. HOFFMANN-LA ROCHE AG, priority 1998, dated 2000)
# Tested on: MMP-3
# Experiment: MG-63 Cell-Based Assay, MMP-3 release after IL-1β stimulation (ELISA)
# Conditions: Homo sapiens, MG63 cells, IL-1β stimulated, 24 hours with compound, read-out: IC50 (µM) in MG63 Cells MMP3
# Excerpt: (§1) The MG63 cell line, a human osteosarcoma cell line, was purchased from American Type Culture Collection (ATCC; Rockville, MD) and grown in the medium recommended by ATCC. When stimulated with human IL-1β , MG63 cells release matrix metalloproteinase 3 (MMP-3), an AP-1 dependent inflammatory mediator and IL-6, a NF-κB-dependent mediator. In this assay the ability of a test compound to block MMP-3 expression and not block IL-6 expression is an indication that the compound is a selective inhibitor of the AP-1 transcription pathway.
# (§2) On day 1 the cells were plated at 2.5X10^4 cells/well in 96 well plates. After 24 hours, dexamethasone (the assay control) (Sigma, St. Louis, MO) and the test compounds were diluted to appropriate concentrations and added to the MG63 cells. The cells were incubated with the compounds for 24 hours after which the supernatants were removed and analyzed by ELISA.
# (§3) In the ELISA, 96 well plates were coated with antibody to MMP-3 or IL-6. Supernatants were added to the coated plates and any antigen (MMP-3 or IL-6) in the supernatant bound to the antibody coated on the plates. The plates were then washed with PBS containing 0.05% Tween 20 (Sigma, St. Louis, MO) and the biotinylated secondary antibody was added. This secondary antibody binds to the already bound antigen creating a "sandwich effect". Plates were washed as described above and horseradish peroxidase (HRP)-streptavidin conjugate (Sigma, St. Louis, MO) was added to the plates. HRP-streptavidin bound to the biotin-antibody conjugate. The plates were washed and TMB substrate (Kirkegaard and Perry Labs, Gaithersburg, MD) was added to the wells. This substrate changes color in the presence of HRP-streptavidin. The intensity of the color (measured at 450 nm) is proportional to the amount of MMP-3 or IL-6 produced by the MG63 cells upon exposure to IL-1β and the test compounds. Optical density values were converted to concentration (pg/ml or Units/ml) based on a standard curve included in the assay. IC50 values for each test compound were determined from the linear regression of a plot of the logarithm of the concentration of compound versus amount of MMP-3 or IL-6 secreted. (The MMP-3 antibodies were prepared in-house using standard hybridoma technology and the IL-6 antibodies were obtained from either Genzyme, Cambridge, MA or Pharmingen, San Diego, CA.).
row,Compound,IC50
1,"C#CC(O)c1ccc[nH]1 (stereo not drawn) [CC, 3-Hydroxy-3-(1H-pyrrol-2-yl)-1-propyne]",< 12.5 µM

# Target: rat SAPK (isoform β) (Rattus norvegicus, UniProt P49187)
# Experiment: SAPK FlashPlate Assay (inhibition of cJun phosphorylation)
# Format: biochemical
# Conditions: GST-cJun substrate, 30 minutes at 37 °C
# Method: "IC50" refers to the concentration of a particular 4- or 5-alkynyloxindole or 4-or 5-alkenyloxindole required to inhibit 50% of cJun phosphorylation, which is a measure of inhibition of SAPK activity. IC50 can be measured, inter alia, using the assay described herein in Example 102.
# Human JNK is highly homologous to rat SAPK. To measure the inhibitory activity of test compounds, the compounds were tested in the rat SAPK assay.
# For the SAPK assay, purified GST-cJun (a chimeric protein containing cJun, a natural substrate of JNK) was coated on 96 well FlashPlates (New England Nuclear, Boston, MA). Purified rat SAPK (isoform β, Kyriakis et al. supra) was preincubated with preparations containing MEKK-1 and MKK4 for 30 minutes at 37 °C in assay buffer containing 25 mM HEPES, pH 7.5, 150 mM NaCl, 20 mM MgCl2, 2 mM DTT, 0.001% Tween 20, 1 µM ATP freshly added. In the preincubation step, MEKK-1 phosphorylates and activates MKK-4, which in tum phosphorylates and activates SAPK. The activated SAPK was then added to the cJun coated FlashPlates along with ^33P-ATP (0.32 µCi per reaction) and test compounds. The plates were incubated for 30 minutes at 37 °C, then washed with PBS, 0.01% Tween 20, and counted in the Topcount scintillation counter (Packard Instrument Co., Downers Grove, IL). Dilutions of compounds were tested in duplicate in each assay. The percent inhibition of cJun phosphorylation (a measure of inhibition of SAPK activity) was determined by the following formula: [formula] where "test compound" refers to the average counts per minute of the test duplicates, "nonspecific" refers to the average counts per minute when no SAPK was added, and "total" refers to the average counts per minute when no compound was added.
# Sequence of rat SAPK (isoform β) (P49187 whole entry, canonical isoform): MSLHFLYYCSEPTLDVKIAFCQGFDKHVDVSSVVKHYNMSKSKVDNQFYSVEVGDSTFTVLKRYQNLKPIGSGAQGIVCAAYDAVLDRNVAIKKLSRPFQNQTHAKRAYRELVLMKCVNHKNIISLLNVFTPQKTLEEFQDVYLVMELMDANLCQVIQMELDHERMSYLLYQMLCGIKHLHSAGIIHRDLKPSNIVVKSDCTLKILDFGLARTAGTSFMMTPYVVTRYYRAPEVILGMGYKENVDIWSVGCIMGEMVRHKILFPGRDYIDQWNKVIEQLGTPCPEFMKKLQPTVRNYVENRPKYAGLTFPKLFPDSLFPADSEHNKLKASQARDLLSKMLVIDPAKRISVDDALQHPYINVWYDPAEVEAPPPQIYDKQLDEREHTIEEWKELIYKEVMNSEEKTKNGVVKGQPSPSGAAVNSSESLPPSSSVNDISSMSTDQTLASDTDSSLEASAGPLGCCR
row,Compound,IC50
1,"COc1cc[nH]c1/C=C1\C(=O)Nc2cccc(C#CC(O)c3ccc[nH]3)c21 (racemic) [DD, rac-(Z)-1,3-Dihydro-4-[3-hydroxy-3-(1H-pyrrol-2-yl)-1-propynyl]-3-[(3-methoxy-1H-pyrrol-2-yl)methylene]-2H-indol-2-one]",< 1 µM
2,"COc1cc[nH]c1/C=C1\C(=O)Nc2cccc(C#Cc3ccccn3)c21 [DDD, (Z)-1,3-Dihydro-3-[(3-methoxy-1H-pyrrol-2-yl)methylene]-4-[(2-pyridinyl)ethynyl]-2H-indol-2-one]",< 1 µM
3,"COc1cc[nH]c1/C=C1\C(=O)Nc2cccc(C#CC(O)c3ccc(NC(C)=O)cc3)c21 (racemic) [BBB, rac-(Z)-4-[3-(4-Acetamidophenyl)-3-hydroxy-1-propynyl]-1,3-dihydro-3-[(3-methoxy-1H-pyrrol-2-yl)methylene]-2H-indol-2-one]",< 1 µM
4,"COc1cc[nH]c1/C=C1\C(=O)Nc2cccc(C#CC(O)c3ccc(O)cc3)c21 (racemic) [Q, rac-(Z)-1,3-Dihydro-4-[3-hydroxy-3-(4-hydroxyphenyl)-1-propynyl]-3-[(3-methoxy-1H-pyrrol-2-yl)methylene]-2H-indol-2-one]",< 1 µM
5,"COc1ccccc1C(O)C#Cc1cccc2c1/C(=C/c1[nH]ccc1OC)C(=O)N2 (racemic) [Compound M, rac-(Z)-1,3-Dihydro-4-[3-hydroxy-3-(2-methoxyphenyl)-1-propynyl]-3-[(3-methoxy-1H-pyrrol-2-yl)methylene]-2H-indol-2-one]",< 1 µM
6,"COc1ccc(C(O)C#Cc2cccc3c2/C(=C/c2[nH]ccc2OC)C(=O)N3)cc1OC (racemic) [FF, rac-(Z)-1,3-Dihydro-4-[3-(3,4-dimethoxyphenyl)-3-hydroxy-1-propynyl]-3-[(3-methoxy-1H-pyrrol-2-yl)methylene]-2H-indol-2-one]",< 1 µM
7,"COc1ccc(C(O)C#Cc2cccc3c2/C(=C/c2[nH]ccc2OC)C(=O)N3)cc1O (racemic) [HH, rac-(Z)-1,3-Dihydro-4-[3-hydroxy-3-(3-hydroxy-4-methoxyphenyl)-1-propynyl]-3-[(3-methoxy-1H-pyrrol-2-yl)methylene]-2H-indol-2-one]",< 1 µM
8,"COc1cc[nH]c1/C=C1\C(=O)Nc2ccc(N)c(C#Cc3cccnc3)c21 [HHH, (Z)-5-Amino-1,3-dihydro-3-[(3-methoxy-1H-pyrrol-2-yl)methylene]-4-[(3-pyridinyl)ethynyl]-2H-indol-2-one]",< 1 µM
9,"COc1cc[nH]c1/C=C1\C(=O)Nc2cccc(C#CC(O)c3ccc(OCCCN(C)C)cc3)c21 (racemic) [V, rac-(Z)-1,3-Dihydro-4-[3-[4-(3-dimethylaminopropoxy)-phenyl]-3-hydroxy-1-propynyl]-3-[(3-methoxy-1H-pyrrol-2-yl)methylene]-2H-indol-2-one]",0.034 µM
10,"COc1cc[nH]c1/C=C1\C(=O)Nc2cccc(C#CC(O)c3ccc(OCC(=O)OC(C)(C)C)cc3)c21 (racemic) [XX, rac-(Z)-[4-[3-[2,3-dihydro-3-[(3-methoxy-1H-pyrrol-2-yl)methylene]-2-oxo-1H-indol-4-yl]-1-hydroxy-2-propynyl]phenoxy]acetic acid 1,1-dimethylethyl ester]",< 1 µM
11,"COc1cc[nH]c1/C=C1\C(=O)Nc2cccc(C#CC(C)(O)c3ccccc3)c21 (racemic) [Compound T, rac-(Z)-1,3-Dihydro-4-[3-hydroxy-3-phenyl-1-butynyl]-3-[(3-methoxy-1H-pyrrol-2-yl)methylene]-2H-indol-2-one]",0.253 µM
12,"COc1cc[nH]c1/C=C1\C(=O)Nc2cccc(C#Cc3ccncc3)c21 [EEE, (Z)-1,3-Dihydro-3-[(3-methoxy-1 H-pyrrol-2-yl)methylene]-4-[(4-pyridinyl)ethynyl]-2H-indol-2-one]",< 1 µM
13,"COc1cc(C(O)C#Cc2cccc3c2/C(=C/c2[nH]ccc2OC)C(=O)N3)ccc1OCCN1CCOCC1 (racemic) [Compound MM, rac-(Z)-1,3-Dihydro-4-[3-hydroxy-3-[3-methoxy-4-[2-(4-morpholinyl)-ethoxy]-phenyl]-1-propynyl]-3-[(3-methoxy-1H-pyrrol-2-yl)methylene]-2H-indol-2-one]",< 1 µM
14,"COc1cc(C(O)C#Cc2cccc3c2/C(=C/c2[nH]ccc2OC)C(=O)N3)ccc1OCC(=O)O (racemic) [RR, rac-(Z)-[4-[3-[2,3-Dihydro-3-[(3-methoxy-1H-pyrrol-2-yl)methylene]-2-oxo-1H-indol-4-yl]-1-hydroxy-2-propynyl]-2-methoxyphenoxy]acetic acid]",< 1 µM
15,"COc1cc[nH]c1/C=C1\C(=O)Nc2cccc(C#CC(O)c3ccc(Cl)cc3OCSC)c21 (racemic) [UU, rac-(Z)-4-[3-(4-Chloro-2-methylsulfanylmethoxyphenyl)-3-hydroxy-1-propynyl]-1,3-dihydro-3-[(3-methoxy-1H-pyrrol-2-yl)methylene]-2H-indol-2-one]",< 1 µM
16,"COc1cc[nH]c1/C=C1\C(=O)Nc2cccc(C#CC(O)c3ccc(OCC(=O)O)cc3)c21 (racemic) [YY, rac-(Z)-[4-[3-[2,3-dihydro-3-[(3-methoxy-1H-pyrrol-2-yl)methylene]-2-oxo-1H-indol-4-yl]-1-hydroxy-2-propynyl]phenoxy]acetic acid]",< 1 µM
17,"COc1cc[nH]c1/C=C1\C(=O)Nc2cccc(C#CC(O)c3sccc3OC)c21 (racemic) [OO, rac-(Z)-1,3-Dihydro-4-[3-hydroxy-3-(3-methoxy-2-thiophenyl)-1-propynyl]-3-[(3-methoxy-1H-pyrrol-2-yl)methylene]-2H-indol-2-one]",< 1 µM
18,"COc1cc(OC)c(C(O)C#Cc2cccc3c2/C(=C/c2[nH]ccc2OC)C(=O)N3)cc1OC (racemic) [PP, rac-(Z)-1,3-Dihydro-4-[3-hydroxy-3-(2,4,5-trimethoxyphenyl)-1-propynyl]-3-[(3-methoxy-1H-pyrrol-2-yl)methylene]-2H-indol-2-one]",< 1 µM
19,"COc1cc[nH]c1/C=C1\C(=O)Nc2ccc([N+](=O)[O-])c(C#Cc3cccnc3)c21 [GGG, (Z)-1,3-Dihydro-3-[(3-methoxy-1H-pyrrol-2-yl)methylene]-5-nitro-4-[(3-pyridinyl)ethynyl]-2H-indol-2-one]",< 1 µM
20,"COc1cc[nH]c1/C=C1\C(=O)Nc2cccc(C#CC(O)c3ccco3)c21 (racemic) [VV, rac-(Z)-1,3-Dihydro-4-[3-(2-furanyl)-3-hydroxy-1-propynyl]-3-[(3-methoxy-1H-pyrrol-2-yl)methylene]-2H-indol-2-one]",< 1 µM
21,"COc1cc[nH]c1/C=C1\C(=O)Nc2cccc(C#CC(O)c3ccc(OCCN4CCOCC4)cc3)c21 (racemic) [Compound TT, rac-(Z)-1,3-Dihydro-4-[3-hydroxy-3-[4-[2-(4-morpholinyl)-ethoxy]-phenyl]-1-propynyl]-3-[(3-methoxy-1H-pyrrol-2-yl)methylene]-2H-indol-2-one]",< 1 µM
22,"COc1cc[nH]c1/C=C1\C(=O)Nc2cccc(C#CC(O)c3cc(OC)c4c(c3)OCO4)c21 (racemic) [SS, rac-(Z)-4-[3-hydroxy-3-(4-methoxy-1,3-benzodioxol-6-yl)-1-propynyl]-1,3-dihydro-3-[(3-methoxy-1H-pyrrol-2-yl)methylene]-2H-indol-2-one]",< 1 µM

# Tested on: IL-6
# Experiment: MG-63 Cell-Based Assay, IL-6 release after IL-1β stimulation (ELISA)
# Conditions: Homo sapiens, MG63 cells, IL-1β stimulated, 24 hours with compound, read-out: IC50 (µM) in MG63 Cells IL6
# Excerpt: as §1, §2, §3
row,Compound,IC50
1,"C#CC(O)c1ccc[nH]1 (stereo not drawn) [CC, 3-Hydroxy-3-(1H-pyrrol-2-yl)-1-propyne]",< 20 µM
